Columns and labels:
[1] = biological target: T1, Human KIF18A (amino acid sequence 1-417) (Homo sapiens, UniProt Q8NI77); experiment: Enzymatic activity test (ADP-Glo, microtubule-stimulated KIF18A ATPase); type: biochemical; details: 60 μg/mL microtubules, 25 μM ATP, 2.5 nM KIF18A protein, 120 min at ambient temperature, read-out: KIF18A_nM
T1 construct: purchased Viva Biotech (Shanghai) Ltd
T1 sequence (Q8NI77 1-417): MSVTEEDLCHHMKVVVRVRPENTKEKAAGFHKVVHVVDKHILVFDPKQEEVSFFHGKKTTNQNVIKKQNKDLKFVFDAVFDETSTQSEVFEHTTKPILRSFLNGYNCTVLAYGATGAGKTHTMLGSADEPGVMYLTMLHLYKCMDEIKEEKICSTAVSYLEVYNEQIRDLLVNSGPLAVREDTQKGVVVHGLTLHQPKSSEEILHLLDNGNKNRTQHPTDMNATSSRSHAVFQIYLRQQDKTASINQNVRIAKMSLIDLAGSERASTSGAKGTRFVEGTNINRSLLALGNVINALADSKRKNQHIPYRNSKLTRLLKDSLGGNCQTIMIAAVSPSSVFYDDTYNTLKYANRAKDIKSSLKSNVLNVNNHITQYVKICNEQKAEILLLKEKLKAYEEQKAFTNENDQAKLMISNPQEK
Outline: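 Microtubule-stimulated ATPase of KIF18A(1-417) run with 60 μg/mL microtubules, 25 μM ATP and 2.5 nM enzyme, compounds at 0-10 μM final, 120 min at ambient temperature. ADP formed was read by ADP-Glo chemiluminescence after two 30-min reagent incubations.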

OVCAR3 cells = experiment: Cell proliferation activity test in OVCAR3 cells (CyQUANT Direct); type: cell-based; details: Homo sapiens, OVCAR-3, 72 h, 3 days incubation, CyQUANT fluorescence detection, read-out: OVCAR-3_IC50_nM
Outline: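 Log-phase cells in RPMI-1640 with 10% FBS were seeded overnight, then exposed to compound at final 0–10 μM (0.2% DMSO) for 3 days at 37 °C, 5% CO2. Proliferation was read by CyQUANT Direct fluorescence after 60 min at 37 °C.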

HT29 cells = experiment: CyQuant cell proliferation activity test in HT29 cells; type: cell-based; details: Homo sapiens, HT-29, 72 h, 2000 cells per well, 3 days incubation, IC50 by XLFIT, read-out: HT29_IC50_nM
Outline: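 Cells seeded at 2000/well in RPMI-1640 with 10% FBS, overnight, then exposed 3 days at 37 °C to compound from 3000 nM top, 3-fold, 9 points, 0.2% DMSO. CyQuant read after 1 h; IC50 from curve fit.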

Row | Structure (SMILES) | IC50 [1] [nM] | IC50 (OVCAR3 cells) [nM] | IC50 (HT29 cells) [nM]
1 | CCC1(C)OCc2c1cc(NC(=O)c1ccc(NS(=O)(=O)CCO)cc1N1CCC3(CC1)CC3)nc2N1CCC(F)(F)CC1 (stereo not drawn) [Example 10, N-(4-(4,4-difluoropiperidin-1-yl)-1-ethyl-1-methyl-1,3-dihydrofuro[3,4-c]pyridin-6-yl)-4-(2-hydroxyethylsulfonamido)-2-(6-azaspiro[2.5]octan-6-yl)benzamide] | 2750 | 614 | 1270
2 | O=C(Nc1cc(N2CCC(F)(F)CC2)c2occc2c1)c1ccc(NS(=O)(=O)CCO)cc1N1CCC2(CC1)CC2 [Example 30, N-(7-(4,4-difluoropiperidin-1-yl)benzofuran-5-yl)-4-(2-hydroxyethylsulfonamido)-2-(6-azaspiro[2.5]octan-6-yl)benzamide] | 27 | 7 | 10
3 | O=C(Nc1cc2ccsc2c(N2CCC(F)(F)CC2)n1)c1ccc(NS(=O)(=O)CCO)cc1N1CCC2(CC1)CC2 [Example 28, N-(7-(4,4-difluoropiperidin-1-yl)thieno[2,3-c]pyridin-5-yl)-4-(2-hydroxyethylsulfonamido)-2-(6-azaspiro[2.5]octan-6-yl)benzamide] | 46 | 26 | 9
4 | O=C(Nc1cc(N2CCC(F)(F)CC2)c2ncsc2c1)c1ccc(NS(=O)(=O)CCO)cc1N1CCC2(CC1)CC2 [Example 41, 2-{6-Azaspiro[2.5]octan-6-yl}-N-[4-(4,4-difluoropiperidin-1-yl)-1,3-benzothiazol-6-yl]-4-(2-hydroxyethanesulfonamido) benzamide] | 38 | 4 | 4
5 | O=C(Nc1cc2c(c(N3CCC(F)(F)CC3)n1)C(=O)NCC2)c1ccc(NS(=O)(=O)CCO)cc1N1CCC2(CC1)CC2 [Example 43, N-(1-(4,4-difluoropiperidin-1-yl)-8-oxo-5,6,7,8-tetrahydro-2,7-naphthyridin-3-yl)-4-(2-hydroxyethylsulfonamido)-2-(6-azaspiro[2.5]octan-6-yl)benzamide] | 28.7 | 7 | 17

Results, then the compound that gave them:

Row | IC50 [1] [nM] | IC50 (OVCAR3 cells) [nM] | IC50 (HT29 cells) [nM] | Structure (SMILES)
6 | 173 | 13 | 16 | Nc1cnc2c(N3CCC(F)(F)CC3)c(F)c(NC(=O)c3ccc(NS(=O)(=O)CCO)cc3N3CCC4(CC3)CC4)cc2c1 [Example 91, N-[3-amino-8-(4,4-difluoropiperidin-1-yl)-7-fluoroquinolin-6-yl]-2-{6-azaspiro[2.5]octan-6-yl}-4-(2-hydroxyethanesulfonamido)benzamide]
7 | 1220 | 1340 | 1430 | O=C(Nc1cc2cccnc2c(N2CCN(CC(F)(F)F)CC2)n1)c1ccc(NS(=O)(=O)CCO)cc1N1CCC2(CC1)CC2 [Example 49, 4-(2-hydroxyethylsulfonamido)-2-(6-azaspiro[2.5]octan-6-yl)-N-(8-(4-(2,2,2-trifluoroethyl)piperazin-1-yl)-1,7-naphthyridin-6-yl)benzamide]
